Experimental data taken from PubChem BioAssay AID1845198 (Molecular Pharmacology Branch, DTP, NCI, 2023).

Test system: 425362-245-T-J1 tumor spheroids, viability % test/control
Assay: Anticancer human tumor 425362-245-T-J1 patient-derived melanoma cell line growth inhibition
Conditions: spheroids with HUVEC and MSC; for IC50: curve of first compound; for viability, T/C: stronger effect = lower value
How it was run: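 Complex tumor spheroids combined malignant cells with endothelial cells and mesenchymal stem cells. DNA-damaging drugs and DNA repair inhibitors were tested alone and in combination, at half-log dilutions down from clinical Cmax (top 10 microM if Cmax unknown), 0.25% DMSO final.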

[1] = second compound 30 pM, first compound 0.0316 µM
[2] = second compound 30 pM, first compound 0.1 µM
[3] = second compound 30 pM, first compound 0.316 µM
[4] = second compound 30 pM, first compound 1 µM
[5] = second compound 30 pM, first compound 3.16 µM
[6] = second compound 30 pM, first compound 10 µM
[7] = second compound 94.9 pM, first compound 0.0316 µM
[8] = second compound 94.9 pM, first compound 0.1 µM
[9] = second compound 94.9 pM, first compound 0.316 µM
[10] = second compound 94.9 pM, first compound 1 µM
[11] = second compound 94.9 pM, first compound 3.16 µM
[12] = second compound 94.9 pM, first compound 10 µM
[13] = second compound 0.0003 µM, first compound 0.0316 µM
[14] = second compound 0.0003 µM, first compound 0.1 µM
[15] = second compound 0.0003 µM, first compound 0.316 µM
[16] = second compound 0.0003 µM, first compound 1 µM
[17] = second compound 0.0003 µM, first compound 3.16 µM
[18] = second compound 0.0003 µM, first compound 10 µM
[19] = second compound 0.000949 µM, first compound 0.0316 µM
[20] = second compound 0.000949 µM, first compound 0.1 µM
[21] = second compound 0.000949 µM, first compound 0.316 µM
[22] = second compound 0.000949 µM, first compound 1 µM
[23] = second compound 0.000949 µM, first compound 3.16 µM
[24] = second compound 0.000949 µM, first compound 10 µM
[25] = second compound 0.003 µM, first compound 0.0316 µM
[26] = second compound 0.003 µM, first compound 0.1 µM
[27] = second compound 0.003 µM, first compound 0.316 µM
[28] = second compound 0.003 µM, first compound 1 µM
[29] = second compound 0.003 µM, first compound 3.16 µM
[30] = second compound 0.003 µM, first compound 10 µM
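Further: spheroids exposed to agents for 7 days.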

Compound: CC(C)n1c(=O)n(C)c2cnc3cc(F)c(-c4ccc(OCCCN5CCCCC5)nc4)cc3c21 + COc1cc2c(cc1O)CCNC21CSC2c3c(OC(C)=O)c(C)c4c(c3C(COC1=O)N1C(O)C3Cc5cc(C)c(OC)c(O)c5C(C21)N3C)OCO4
- IC50 (second compound 30 pM): < 31.6 nM
- IC50 (second compound 94.9 pM): < 31.6 nM
- IC50 (second compound 0.0003 µM): < 31.6 nM
- IC50 (second compound 0.000949 µM): < 31.6 nM
- IC50 (second compound 0.003 µM): < 31.6 nM
- viability, T/C [1]: 14.8%
- viability, T/C [2]: 30.2%
- viability, T/C [3]: 13.3%
- viability, T/C [4]: 14.8%
- viability, T/C [5]: 11.2%
- viability, T/C [6]: 5.34%
- viability, T/C [7]: 12%
- viability, T/C [8]: 9.68%
- viability, T/C [9]: 5.43%
- viability, T/C [10]: 6.03%
- viability, T/C [11]: 6.79%
- viability, T/C [12]: 4.33%
- viability, T/C [13]: 3.13%
- viability, T/C [14]: 2.75%
- viability, T/C [15]: 1.61%
- viability, T/C [16]: 1.81%
- viability, T/C [17]: 1.68%
- viability, T/C [18]: 1.23%
- viability, T/C [19]: 0.2%
- viability, T/C [20]: 0.2%
- viability, T/C [21]: 0.19%
- viability, T/C [22]: 0.63%
- viability, T/C [23]: 0.35%
- viability, T/C [24]: 0.15%
- viability, T/C [25]: 0.18%
- viability, T/C [26]: 0.19%
- viability, T/C [27]: 0.17%
- viability, T/C [28]: 0.12%
- viability, T/C [29]: 0.12%
- viability, T/C [30]: 0.23%

Compound: COc1ccc([C@@H](O)c2cc(-c3ncnc4cc(N5CCOCC5)ccc34)c(F)cc2Cl)nn1 + COc1cc2c(cc1O)CCNC21CSC2c3c(OC(C)=O)c(C)c4c(c3C(COC1=O)N1C(O)C3Cc5cc(C)c(OC)c(O)c5C(C21)N3C)OCO4
- IC50 (second compound 30 pM): 1490 nM
- IC50 (second compound 94.9 pM): 889 nM
- IC50 (second compound 0.0003 µM): < 31.6 nM
- IC50 (second compound 0.000949 µM): < 31.6 nM
- IC50 (second compound 0.003 µM): < 31.6 nM
- viability, T/C [1]: 94.5%
- viability, T/C [2]: 108%
- viability, T/C [3]: 93.6%
- viability, T/C [4]: 58.5%
- viability, T/C [5]: 32.7%
- viability, T/C [6]: 15.9%
- viability, T/C [7]: 91%
- viability, T/C [8]: 91.2%
- viability, T/C [9]: 84.3%
- viability, T/C [10]: 44.4%
- viability, T/C [11]: 26.5%
- viability, T/C [12]: 14.2%
- viability, T/C [13]: 49.2%
- viability, T/C [14]: 42.5%
- viability, T/C [15]: 36.6%
- viability, T/C [16]: 3.35%
- viability, T/C [17]: 0.22%
- viability, T/C [18]: 0.19%
- viability, T/C [19]: 0.4%
- viability, T/C [20]: 0.23%
- viability, T/C [21]: 0.14%
- viability, T/C [22]: 0.08%
- viability, T/C [23]: 0.05%
- viability, T/C [24]: 0.22%
- viability, T/C [25]: 0.28%
- viability, T/C [26]: 0.35%
- viability, T/C [27]: 0.35%
- viability, T/C [28]: 0.33%
- viability, T/C [29]: 0.3%
- viability, T/C [30]: 0.39%

Compound: O=C(c1cc(Cc2n[nH]c(=O)c3ccccc23)ccc1F)N1CCN(C(=O)C2CC2)CC1 + Cn1nnc2c(C(N)=O)ncn2c1=O
- IC50 (second compound 1 µM): 3100 nM
- IC50 (second compound 3.16 µM): 3280 nM
- IC50 (second compound 10 µM): 2520 nM
- IC50 (second compound 31.6 µM): 2040 nM
- IC50 (second compound 100 µM): 233 nM
- viability, T/C (second compound 1 µM, first compound 0.0949 µM): 88.6%
- viability, T/C (second compound 1 µM, first compound 0.3 µM): 86.2%
- viability, T/C (second compound 1 µM, first compound 0.949 µM): 71.6%
- viability, T/C (second compound 1 µM, first compound 3 µM): 55.6%
- viability, T/C (second compound 1 µM, first compound 9.49 µM): 12%
- viability, T/C (second compound 1 µM, first compound 30 µM): 6.69%
- viability, T/C (second compound 3.16 µM, first compound 0.0949 µM): 97.8%
- viability, T/C (second compound 3.16 µM, first compound 0.3 µM): 87.7%
- viability, T/C (second compound 3.16 µM, first compound 0.949 µM): 83.5%
- viability, T/C (second compound 3.16 µM, first compound 3 µM): 54.6%
- viability, T/C (second compound 3.16 µM, first compound 9.49 µM): 12.8%
- viability, T/C (second compound 3.16 µM, first compound 30 µM): 7.75%
- viability, T/C (second compound 10 µM, first compound 0.0949 µM): 101%
- viability, T/C (second compound 10 µM, first compound 0.3 µM): 85.2%
- viability, T/C (second compound 10 µM, first compound 0.949 µM): 80.2%
- viability, T/C (second compound 10 µM, first compound 3 µM): 45.8%
- viability, T/C (second compound 10 µM, first compound 9.49 µM): 13.1%
- viability, T/C (second compound 10 µM, first compound 30 µM): 6.66%
- viability, T/C (second compound 31.6 µM, first compound 0.0949 µM): 96.5%
- viability, T/C (second compound 31.6 µM, first compound 0.3 µM): 83.8%
- viability, T/C (second compound 31.6 µM, first compound 0.949 µM): 69.7%
- viability, T/C (second compound 31.6 µM, first compound 3 µM): 44.4%
- viability, T/C (second compound 31.6 µM, first compound 9.49 µM): 6.18%
- viability, T/C (second compound 31.6 µM, first compound 30 µM): 6.01%
- viability, T/C (second compound 100 µM, first compound 0.0949 µM): 68.1%
- viability, T/C (second compound 100 µM, first compound 0.3 µM): 43.8%
- viability, T/C (second compound 100 µM, first compound 0.949 µM): 26.7%
- viability, T/C (second compound 100 µM, first compound 3 µM): 10%
- viability, T/C (second compound 100 µM, first compound 9.49 µM): 4.29%
- viability, T/C (second compound 100 µM, first compound 30 µM): 3.96%
